Laboratory results taken from patent publication US6060516A, “N^1 -propargylhydrazines, N^2 -propargylhydrazines and their analogs for the treatment of depression, anxiety and neurodegeneration” (CV Technologies, Inc., priority 1998, dated 2000).

Assays:
[1] = tested on: NA, DA, 5-HT, 5-HIAA and DOPAC concentrations in rat hypothalamus; assay: Rat hypothalamus amine and amine metabolite concentrations; assay type: in vivo; conditions: 2 × 75 μmol/kg per os
[2] = tested on: PC12 cells; assay: PC12 neurite outgrowth (neurotrophic effect); assay type: cell-based; conditions: for Index of Neurite Outgrowth: seven days
Experimental: The effects of CVT-P040 on neurite outgrowth in cell culture were investigated using an established PC 12 pheochromocytoma cell culture. The effects of CVT-P040 and nerve growth factor on neurite outgrowth were estimated using the method described by Rydel, R. E and Greene, L. A.(1987), Acidic and basic fibroblast growth factors promote stable neurite outgrowth and basic neuronal differentiation in cultures of PC12 cells, J. Neuroscience 7: 3639-3653. Briefly, PC12 cells were seeded and maintained in 100 cm^2 tissue culture dishes at 37° C. in RPMI1640 media containing 1% antibiotics, 10% heat inactivated horse serum and 5% fetal bovine serum in a water saturated atmosphere of 95% air and 5% CO2. The cells were mechanically dislodged and plated into 35 mm collagen-coated tissue culture dishes containing a total of 2.0 ml complete medium at a density of […]. The medium was changed 3 times/week. Cellular responses to CVT-P040 and nerve growth factor (NGF) were determined by counting the number of PC12 cells containing processes. Photographs of the cells were taken after seven days treatment. Two cell fields were chosen in each dish and the photographs developed and printed. […] The neurite index was calculated using the following formula; Neurite Index=total neurite score (ΣS)/ total cell number (ΣN); ΣS=S1×N+S2×N +S3×N+S4×N, where N is the number of cells in each cell field.

[3] = tested on: MAO-B; assay: MAO-B inhibition ex vivo in DSP-4 treated mice (brain); design: species or system mouse
Experimental: Biochem. Pharmacol. 31: 1417-1424. Radiolabelled β-phenylethylamine was employed as a substrate for monoamine oxidase-B. The compounds of interest were either injected intraperitoneally in DMSO or administered by gavage in water for various periods. The animals were killed by decapitation and the brains and livers immediately removed and frozen until assayed for monoamine oxidase-B activity. Tissues were homogenized and appropriately diluted in buffer prior to incubation. Incubations proceeded at 37° C. for 10 minutes. Incubation was terminated by the addition of acid and the radiolabelled product (phenylacetic acid) was extracted and quantified by liquid scintillation counting procedures. Incubations were done in triplicate and incubations containing phenelzine were included for comparison. The percent inhibition of monoamine oxidase-B activity compared to controls containing no drug was calculated.
Neuroprotectant activity was evaluated by examining the prevention of DSP-4 induced noradrenaline depletion in mouse hippocampus as described in Yu, P. H., Davis, B. A., Fang, J. and Boulton, A. A. (1994), Neuroprotective effect of some monoamine oxidase-B inhibitors against DSP-4 induced noradrenaline depletion in the mouse hippocampus, J. Neurochem. 63: 1820-1828. Briefly, mice were injected (i.p.) with either 20% DMSO or potential neuroprotectants (10 mg/kg in 20% DMSO). […]

[4] = tested on: DSP-4 induced noradrenaline depletion in mouse hippocampus; assay: Prevention of DSP-4 induced noradrenaline depletion in mouse hippocampus; assay type: in vivo; conditions: 10 mg/kg then DSP-4 50 mg/kg; saline control experiment

Structure (SMILES)	5-HT [1] [ng/g]	DA [1] [ng/g]	neurite index on coadministration with NGF ([2]; CVT-P040 100 μM with 0.3 or 1.0 ng/ml NGF, against NGF alone, in words)	Index of Neurite Outgrowth ([2]; CVT-P040 100 μM with NGF 0.1 ng/ml)	Index of Neurite Outgrowth ([2]; CVT-P040 100 μM with NGF 0.3 ng/ml)	Index of Neurite Outgrowth ([2]; CVT-P040 100 μM with NGF 1.0 ng/ml)	neurite outgrowth in PC12 cells ([2]; CVT-P040 100 μM, in words)	Index of Neurite Outgrowth ([2]; CVT-P040 100 μM)	MAO-B % Inhibition ([3]; 10 mg/kg i.p. then DSP-4 50 mg/kg, 20% DMSO control experiment) [%]	% NA Restoration [4] [%]	NA [4] [ng/g]	MAO-B % Inhibition ([3]; 10 mg/kg then DSP-4 50 mg/kg, saline control experiment) [%]
NNCCc1ccccc1 [phenelzine, 1-(2-phenyl) ethylhydrazine, reference compound]	1232 ± 87	607 ± 103	–	–	–	–	–	–	–	–	–	–
C#CCN(N)CCc1ccccc1 [CVT-P040, N^1 -propargylphenelzine]	–	–	increased the neurite index above those cultures receiving 0.3 or 1.0 ng/ml NGF alone	0.55 ± 0.03	0.97 ± 0.06	1.53 ± 0.07	increased neurite outgrowth in PC12 cells	0.35 ± 0.03	20.3	–	–	–
C#CCN(CCc1ccccc1)NC(C)=O [CVT-P041, N^1 -propargyl-N^2 -acetylphenelzine]	946	553 ± 129	–	–	–	–	–	–	–	-43.2	168 ± 31	-3.7
